The results in this text go back to US12404250B2, “PARP inhibitors for treating cancer and asthma” (Oregon Health & Science University, priority 2018, dated 2025).

One assay concerns the target T1, PARP5 bcat (Homo sapiens, UniProt Q9H2K2).
T1 construct: bcat
As to the kind of experiment: In vitro IC50, PARP5bcat. In kind it is biochemical. The conditions noted are these: SEM from a minimum of three dose-response experiments.

In the next assay the target is T2, PARP7 (Homo sapiens, UniProt Q7Z3E1).
T2 sequence (Q7Z3E1 1-657): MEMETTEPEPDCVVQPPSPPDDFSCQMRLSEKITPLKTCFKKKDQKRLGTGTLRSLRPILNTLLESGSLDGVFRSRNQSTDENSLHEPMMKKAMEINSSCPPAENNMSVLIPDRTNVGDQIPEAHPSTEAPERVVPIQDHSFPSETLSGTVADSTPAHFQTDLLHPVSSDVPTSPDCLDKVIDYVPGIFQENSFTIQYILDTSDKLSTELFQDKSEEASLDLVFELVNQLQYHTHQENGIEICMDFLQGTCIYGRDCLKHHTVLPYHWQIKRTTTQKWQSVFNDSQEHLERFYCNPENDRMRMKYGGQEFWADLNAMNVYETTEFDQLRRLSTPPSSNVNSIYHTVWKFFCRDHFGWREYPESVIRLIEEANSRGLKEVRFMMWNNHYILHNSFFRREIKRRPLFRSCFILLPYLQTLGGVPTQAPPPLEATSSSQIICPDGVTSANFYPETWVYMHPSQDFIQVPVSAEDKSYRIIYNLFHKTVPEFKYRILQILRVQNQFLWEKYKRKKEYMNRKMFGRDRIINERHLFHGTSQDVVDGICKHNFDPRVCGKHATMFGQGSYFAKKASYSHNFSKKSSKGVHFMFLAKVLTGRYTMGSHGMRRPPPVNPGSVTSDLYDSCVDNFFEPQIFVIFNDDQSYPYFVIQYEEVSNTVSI
As to the kind of experiment: In vitro IC50, PARP7. The conditions noted are these: SEM from a minimum of three dose-response experiments. In kind it is biochemical.

A further assay has as its target PARP 1 (Homo sapiens, UniProt P09874). As to the kind of experiment: In vitro IC50, PARP1. Format: biochemical. The conditions noted are these: SEM from a minimum of three dose-response experiments.
The next assay addresses T3, PARP14 cat-wwe (Homo sapiens, UniProt Q460N5).
T3 construct: PARP14 cat-wwe; no borders given for the assay protein
T3 sequence (Q460N5 1523-1801 limits assumed): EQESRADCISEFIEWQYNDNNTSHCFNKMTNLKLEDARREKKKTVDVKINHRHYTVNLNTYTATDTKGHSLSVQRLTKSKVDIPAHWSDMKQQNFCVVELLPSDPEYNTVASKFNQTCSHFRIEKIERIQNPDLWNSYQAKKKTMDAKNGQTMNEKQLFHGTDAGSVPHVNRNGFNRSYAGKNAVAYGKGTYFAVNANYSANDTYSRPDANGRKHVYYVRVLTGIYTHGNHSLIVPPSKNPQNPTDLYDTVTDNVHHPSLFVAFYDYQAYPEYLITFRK
As to the kind of experiment: In vitro IC50, PARP14 cat-wwe. In kind it is biochemical. The conditions noted are these: SEM from a minimum of three dose-response experiments.

Another assay addresses T4, PARP16 (Homo sapiens, UniProt Q8N5Y8).
T4 construct: expressed in transfected cells; host or cells: HEK 293T
T4 sequence (Q8N5Y8 1-322): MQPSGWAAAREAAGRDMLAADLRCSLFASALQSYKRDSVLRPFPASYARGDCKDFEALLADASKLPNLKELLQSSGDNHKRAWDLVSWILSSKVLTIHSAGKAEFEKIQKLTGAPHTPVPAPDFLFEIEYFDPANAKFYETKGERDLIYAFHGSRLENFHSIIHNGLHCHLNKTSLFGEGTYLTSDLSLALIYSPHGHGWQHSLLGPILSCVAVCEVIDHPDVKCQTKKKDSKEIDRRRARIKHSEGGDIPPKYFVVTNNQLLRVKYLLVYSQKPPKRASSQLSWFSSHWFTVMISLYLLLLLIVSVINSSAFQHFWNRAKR
The assay is described as follows: In vitro IC50, immunoprecipitated GFP-PARP16 auto-MARylation. In kind it is biochemical.

Another assay concerns the target T5, PARP15 cat (Homo sapiens, UniProt Q460N3).
T5 construct: cat-wwe; cat
T5 sequence (Q460N3 482-678 limits assumed): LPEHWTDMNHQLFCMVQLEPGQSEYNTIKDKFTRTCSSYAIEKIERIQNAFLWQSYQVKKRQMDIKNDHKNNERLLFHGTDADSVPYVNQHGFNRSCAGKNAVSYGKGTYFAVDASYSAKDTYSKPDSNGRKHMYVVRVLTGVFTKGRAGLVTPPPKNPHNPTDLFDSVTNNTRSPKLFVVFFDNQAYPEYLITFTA
As to the kind of experiment: In vitro IC50, PARP15 cat. The conditions noted are these: SEM from a minimum of three dose-response experiments. In kind it is biochemical.

For another assay, the target named is T6, PARP8 (Homo sapiens, UniProt Q8N3A8).
T6 construct: expressed in transfected cells; host or cells: HEK 293T
T6 sequence (Q8N3A8 1-854): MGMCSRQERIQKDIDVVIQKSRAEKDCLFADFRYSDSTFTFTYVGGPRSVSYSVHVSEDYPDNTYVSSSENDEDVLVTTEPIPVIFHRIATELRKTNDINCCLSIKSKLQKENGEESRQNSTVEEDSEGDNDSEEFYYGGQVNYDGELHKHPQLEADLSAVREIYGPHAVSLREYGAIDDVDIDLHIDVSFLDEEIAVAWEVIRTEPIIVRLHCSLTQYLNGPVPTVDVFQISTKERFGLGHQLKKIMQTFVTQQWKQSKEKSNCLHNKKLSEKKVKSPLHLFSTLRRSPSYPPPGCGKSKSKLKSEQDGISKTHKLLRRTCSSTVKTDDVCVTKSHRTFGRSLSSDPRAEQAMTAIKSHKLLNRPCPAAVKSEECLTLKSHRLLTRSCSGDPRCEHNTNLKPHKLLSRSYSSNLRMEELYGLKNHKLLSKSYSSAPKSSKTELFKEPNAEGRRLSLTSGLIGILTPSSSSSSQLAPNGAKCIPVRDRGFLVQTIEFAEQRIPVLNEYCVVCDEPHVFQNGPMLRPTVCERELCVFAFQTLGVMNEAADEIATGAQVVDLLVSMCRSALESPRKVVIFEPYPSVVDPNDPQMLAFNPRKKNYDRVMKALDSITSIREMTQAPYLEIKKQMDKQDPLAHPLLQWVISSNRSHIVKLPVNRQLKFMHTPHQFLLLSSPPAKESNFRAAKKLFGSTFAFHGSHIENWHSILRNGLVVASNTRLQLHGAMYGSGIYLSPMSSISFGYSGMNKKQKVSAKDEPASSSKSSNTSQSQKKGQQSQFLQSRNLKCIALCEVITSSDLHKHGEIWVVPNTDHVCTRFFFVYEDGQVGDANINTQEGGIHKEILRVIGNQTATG
The assay is described as follows: In vitro IC50, immunoprecipitated GFP-PARP8 auto-MARylation. In kind it is biochemical.

In another assay the target is T7, PARP1/2 (Homo sapiens, UniProt P09874).
T7 construct: expressed in transfected cells; host or cells: HEK 293T
T7 sequence (P09874 2-1014): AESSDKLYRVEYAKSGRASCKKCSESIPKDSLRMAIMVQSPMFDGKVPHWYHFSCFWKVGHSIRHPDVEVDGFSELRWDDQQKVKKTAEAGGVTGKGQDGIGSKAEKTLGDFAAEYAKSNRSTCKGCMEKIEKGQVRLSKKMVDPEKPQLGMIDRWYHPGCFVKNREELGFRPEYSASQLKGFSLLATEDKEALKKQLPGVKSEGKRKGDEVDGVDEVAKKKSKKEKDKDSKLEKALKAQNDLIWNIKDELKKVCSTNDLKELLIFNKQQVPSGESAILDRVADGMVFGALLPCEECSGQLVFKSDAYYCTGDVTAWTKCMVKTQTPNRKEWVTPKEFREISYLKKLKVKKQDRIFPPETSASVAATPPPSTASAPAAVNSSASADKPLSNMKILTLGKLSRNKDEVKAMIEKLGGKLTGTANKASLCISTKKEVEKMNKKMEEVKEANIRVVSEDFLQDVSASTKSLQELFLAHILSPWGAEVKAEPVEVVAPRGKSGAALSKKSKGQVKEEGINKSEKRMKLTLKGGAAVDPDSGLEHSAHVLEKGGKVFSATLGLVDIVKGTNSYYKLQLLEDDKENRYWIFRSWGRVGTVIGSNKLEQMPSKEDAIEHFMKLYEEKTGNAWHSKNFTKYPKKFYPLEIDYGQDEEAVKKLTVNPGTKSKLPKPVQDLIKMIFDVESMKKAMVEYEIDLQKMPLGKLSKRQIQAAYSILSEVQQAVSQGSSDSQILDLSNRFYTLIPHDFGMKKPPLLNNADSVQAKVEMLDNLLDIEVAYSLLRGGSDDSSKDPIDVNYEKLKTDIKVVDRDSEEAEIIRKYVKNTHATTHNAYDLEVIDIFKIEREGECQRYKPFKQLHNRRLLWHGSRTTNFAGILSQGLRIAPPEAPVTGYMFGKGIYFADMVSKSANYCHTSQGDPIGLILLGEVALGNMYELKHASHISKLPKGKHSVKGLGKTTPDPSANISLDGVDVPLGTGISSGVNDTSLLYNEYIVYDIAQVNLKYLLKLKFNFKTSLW
As to the kind of experiment: H2O2-stimulated PARP1/2 activity in HEK 293T cells (Western blot). Format: cell-based. The conditions noted are these: H2O2 500 μM for 15 min, Western blot with ADPr binding reagent.

As a reminder, the IC50 is the concentration needed to halve the response being measured. High values mean a need for much substance, low ones inhibition by little substance.

Structures are written as SMILES.

T1 sequence (Q9H2K2 959-1164): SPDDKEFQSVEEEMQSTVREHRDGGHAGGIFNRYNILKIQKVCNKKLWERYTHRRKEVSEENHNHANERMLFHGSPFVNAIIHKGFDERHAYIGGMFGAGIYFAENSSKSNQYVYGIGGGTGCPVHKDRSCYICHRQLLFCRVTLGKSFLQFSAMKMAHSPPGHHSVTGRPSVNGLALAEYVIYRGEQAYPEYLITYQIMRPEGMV
PARP 1, sequence (P09874 whole entry): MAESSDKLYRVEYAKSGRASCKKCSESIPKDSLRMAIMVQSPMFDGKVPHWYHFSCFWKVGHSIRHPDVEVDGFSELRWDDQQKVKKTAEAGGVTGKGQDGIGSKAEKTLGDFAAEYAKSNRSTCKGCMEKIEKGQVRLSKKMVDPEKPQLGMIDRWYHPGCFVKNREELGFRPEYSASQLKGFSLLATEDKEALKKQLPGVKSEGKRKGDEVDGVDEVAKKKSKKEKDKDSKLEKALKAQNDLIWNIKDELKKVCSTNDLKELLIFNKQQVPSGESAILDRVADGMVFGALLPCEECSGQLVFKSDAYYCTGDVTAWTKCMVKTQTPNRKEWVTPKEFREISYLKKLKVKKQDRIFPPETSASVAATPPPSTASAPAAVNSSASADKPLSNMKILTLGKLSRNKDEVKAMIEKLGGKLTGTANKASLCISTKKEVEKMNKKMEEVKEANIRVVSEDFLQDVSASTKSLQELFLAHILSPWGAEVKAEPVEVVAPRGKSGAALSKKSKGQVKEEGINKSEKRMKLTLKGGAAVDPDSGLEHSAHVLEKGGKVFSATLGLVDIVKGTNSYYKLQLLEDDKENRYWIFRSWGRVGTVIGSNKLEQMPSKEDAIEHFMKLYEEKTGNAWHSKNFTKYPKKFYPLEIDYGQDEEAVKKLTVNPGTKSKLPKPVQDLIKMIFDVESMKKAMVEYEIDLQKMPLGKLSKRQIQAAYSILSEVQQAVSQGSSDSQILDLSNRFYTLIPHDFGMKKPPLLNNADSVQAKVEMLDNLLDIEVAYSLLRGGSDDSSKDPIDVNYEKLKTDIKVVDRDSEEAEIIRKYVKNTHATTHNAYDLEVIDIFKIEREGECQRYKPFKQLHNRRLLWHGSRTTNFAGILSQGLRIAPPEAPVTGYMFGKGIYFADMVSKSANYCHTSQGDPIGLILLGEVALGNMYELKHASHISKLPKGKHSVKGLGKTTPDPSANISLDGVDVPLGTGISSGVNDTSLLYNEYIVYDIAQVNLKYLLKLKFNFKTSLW
Experimental for PARP1/2: Lysates were prepared and PAR/MARylation was analyzed by Western blot with an ADP-ribose (ADPr) binding reagent. Blot was also probed with antibodies for GFP and actin. The band of interest represents auto-PARylated GFP-PARP1. […] Lysates were prepared and PAR/MARylation was analyzed by Western blot with an ADP-ribose (ADPr) binding reagent. Blot was also probed with antibodies for GFP and actin.
Lysates were prepared and PAR/MARylation was analyzed by Western blot with an ADP-ribose (ADPr) binding reagent. Blot was also probed with antibodies for GFP and actin. The band of interest represents auto-PARylated GFP-PARP1.
Experimental for PARP16: (§1) Auto-MARylation was analyzed by Western blot with an ADP-ribose (ADPr) binding reagent (uncropped blots shown below).
Experimental for PARP8: as §1

Consider `CC#Cc1ccc2c(=O)[nH]c(CSc3ncccn3)nc2c1C` [ITK7, 8-methyl-7-(prop-1-yn-1-yl)-2-((pyrimidin-2-ylthio)methyl)quinazolin-4(3H)-one], for which the IC50 was above 30 µM on PARP5 bcat; 2.46 ± 0.5 µM on PARP7; above 30 µM at PARP 1; 2.86 ± 0.35 µM at PARP14 cat-wwe; above 3 µM on PARP16; above 30 µM on PARP15 cat. The same compound gave an IC50 at PARP8 above 3 µM. Further, the “Inhibition of H2O2-mediated PARP1 PARylation (PARP½ activity) in cells” value on PARP1/2 was “has no effect”.
As to `CC#Cc1ccc2c(=O)[nH]c(CSc3ccc(C(=O)O)cc3)nc2c1C` [ITK6, 4-(((8-methyl-4-oxo-7-(prop-1-yn-1-yl)-3,4-dihydroquinazolin-2-yl)methyl)thio) benzoic acid], the IC50 at PARP5 bcat was above 30 µM; on PARP7, 24.6 ± 0.5 µM; against PARP14 cat-wwe it was 0.917 ± 0.086 µM; against PARP15 cat, 0.496 ± 0.19 µM; on PARP8, above 3 µM.
